This is an account of results in PubChem BioAssay AID1259407 (Chemical Carcinogenesis Research Information System (CCRIS), 2018).

This data set deals with CCRIS mutagenicity, Ames/micronucleus/aberration tests. The experiment in a line: CCRIS mutagenicity studies.
[1] abbreviates: Test System: AMES SALMONELLA TYPHIMURIUM, Strain/Indicator: TA100, Metabolic Activation: RAT, LIVER, S-9, AROCLOR 1254, Method: STANDARD PLATE.
The mark [2] stands for this setting: Test System: AMES SALMONELLA TYPHIMURIUM, Strain/Indicator: TA98, Metabolic Activation: NONE, Method: STANDARD PLATE.
Where [3] appears, read: Test System: AMES SALMONELLA TYPHIMURIUM, Strain/Indicator: TA98, Metabolic Activation: RAT, LIVER, S-9, AROCLOR 1254, Method: STANDARD PLATE.
The mark [4] stands for this setting: Test System: AMES SALMONELLA TYPHIMURIUM, Strain/Indicator: TA100, Metabolic Activation: NONE, Method: STANDARD PLATE.

Activity calls are given as the source filed them. No rule for the calls is given here.

Take `O=C(O)c1ccccc1[N+](=O)[O-]`: the mutagenic call reads like this: (Test System: AMES SALMONELLA TYPHIMURIUM, Strain/Indicator: TA97, Metabolic Activation: HAMSTER, LIVER, S-9, AROCLOR 1254 (10%), Method: PREINCUBATION) “inactive; negative”; (Test System: AMES SALMONELLA TYPHIMURIUM, Strain/Indicator: TA97, Metabolic Activation: NONE, Method: PREINCUBATION) “inactive; negative”; (Test System: AMES SALMONELLA TYPHIMURIUM, Strain/Indicator: TA97, Metabolic Activation: RAT, LIVER, S-9, AROCLOR 1254 (10%), Method: PREINCUBATION) “inactive; negative”; (Test System: AMES SALMONELLA TYPHIMURIUM, Strain/Indicator: TA98, Metabolic Activation: HAMSTER, LIVER, S-9, AROCLOR 1254 (10%), Method: PREINCUBATION) “inactive; negative”; (Test System: AMES SALMONELLA TYPHIMURIUM, Strain/Indicator: TA98, Metabolic Activation: NONE, Method: PREINCUBATION) “active; positive”; (Test System: AMES SALMONELLA TYPHIMURIUM, Strain/Indicator: TA98, Metabolic Activation: RAT, LIVER, S-9, AROCLOR 1254 (10%), Method: PREINCUBATION) “inactive; negative”. Moreover, the mutagenic call is “active; positive” (Test System: AMES SALMONELLA TYPHIMURIUM, Strain/Indicator: TA98, Metabolic Activation: RAT, LIVER, S-9, KANECHLOR 500, Method: PREINCUBATION); “inactive; negative” (Test System: AMES SALMONELLA TYPHIMURIUM, Strain/Indicator: TA100, Metabolic Activation: HAMSTER, LIVER, S-9, AROCLOR 1254 (5 OR 30%), Method: PREINCUBATION); “inactive; negative” (Test System: AMES SALMONELLA TYPHIMURIUM, Strain/Indicator: TA100, Metabolic Activation: HAMSTER, LIVER, S-9, AROCLOR 1254, FLAVIN MONONUCLEOTIDE, Method: PREINCUBATION); “inactive; negative” (Test System: AMES SALMONELLA TYPHIMURIUM, Strain/Indicator: TA100, Metabolic Activation: HAMSTER, LIVER, S-9, AROCLOR 1254, Method: PREINCUBATION); “inactive; negative” (Test System: AMES SALMONELLA TYPHIMURIUM, Strain/Indicator: TA100, Metabolic Activation: RAT, LIVER, S-9, AROCLOR 1254 (5 OR 30%), Method: PREINCUBATION); “inactive; negative” (Test System: AMES SALMONELLA TYPHIMURIUM, Strain/Indicator: TA100, Metabolic Activation: RAT, LIVER, S-9, AROCLOR 1254 (10%), Method: PREINCUBATION). Further, the mutagenic call is, setting by setting: (Test System: AMES SALMONELLA TYPHIMURIUM, Strain/Indicator: TA100, Metabolic Activation: RAT, LIVER, S-9, AROCLOR 1254, FLAVIN MONONUCLEOTIDE, Method: PREINCUBATION) “inactive; negative”; under setting [1], “inactive; negative”; (Test System: AMES SALMONELLA TYPHIMURIUM, Strain/Indicator: TA100, Metabolic Activation: RAT, LIVER, S-9, KANECHLOR 500, Method: PREINCUBATION) “active; positive”; (Test System: AMES SALMONELLA TYPHIMURIUM, Strain/Indicator: TA1535, Metabolic Activation: HAMSTER, LIVER, S-9, AROCLOR 1254 (10%), Method: PREINCUBATION) “inactive; negative”; (Test System: AMES SALMONELLA TYPHIMURIUM, Strain/Indicator: TA1535, Metabolic Activation: NONE, Method: PREINCUBATION) “inactive; negative”; (Test System: AMES SALMONELLA TYPHIMURIUM, Strain/Indicator: TA1535, Metabolic Activation: RAT, LIVER, S-9, AROCLOR 1254 (10%), Method: PREINCUBATION) “inactive; negative”. Also, the mutagenic call (Test System: AMES SALMONELLA TYPHIMURIUM, Strain/Indicator: TA1537, Metabolic Activation: NONE, Method: PREINCUBATION) is “inactive; negative” and the mutagenic call (Test System: AMES SALMONELLA TYPHIMURIUM, Strain/Indicator: TA1538, Metabolic Activation: NONE, Method: PREINCUBATION) was “active; positive”.

As to `ClCc1ccncc1`, the mutagenic call (Test System: AMES SALMONELLA TYPHIMURIUM, Strain/Indicator: TA97, Metabolic Activation: NONE, Method: STANDARD PLATE) was “inactive; negative”; the mutagenic call (Test System: AMES SALMONELLA TYPHIMURIUM, Strain/Indicator: TA97, Metabolic Activation: RAT, LIVER, S-9, AROCLOR 1254, Method: STANDARD PLATE) is “inactive; negative”; the mutagenic call under setting [2] is “inactive; negative”; the mutagenic call under setting [3] is “inactive; negative”; the mutagenic call under setting [4] was “inactive; negative”; the mutagenic call (Test System: AMES SALMONELLA TYPHIMURIUM, Strain/Indicator: TA102, Metabolic Activation: NONE, Method: STANDARD PLATE) is “inactive; negative”. Besides, the mutagenic call (Test System: AMES SALMONELLA TYPHIMURIUM, Strain/Indicator: TA102, Metabolic Activation: RAT, LIVER, S-9, AROCLOR 1254, Method: STANDARD PLATE) was “inactive; negative”.

As for `O=c1c(Cl)c(Cl)cnn1S(=O)(=O)c1ccc([N+](=O)[O-])cc1`, the mutagenic call under setting [2] was “active; positive”; the mutagenic call under setting [3] is “inactive; negative”; the mutagenic call under setting [4] was “active; positive”; the mutagenic call under setting [1] was “active; positive”; the mutagenic call (Test System: AMES SALMONELLA TYPHIMURIUM, Strain/Indicator: TA1535, Metabolic Activation: NONE, Method: STANDARD PLATE) is “inactive; negative”; the mutagenic call (Test System: AMES SALMONELLA TYPHIMURIUM, Strain/Indicator: TA1535, Metabolic Activation: RAT, LIVER, S-9, AROCLOR 1254, Method: STANDARD PLATE) is “active; positive”. Further, the mutagenic call is “inactive; negative” (Test System: AMES SALMONELLA TYPHIMURIUM, Strain/Indicator: TA1537, Metabolic Activation: NONE, Method: STANDARD PLATE) and “inactive; negative” (Test System: AMES SALMONELLA TYPHIMURIUM, Strain/Indicator: TA1537, Metabolic Activation: RAT, LIVER, S-9, AROCLOR 1254, Method: STANDARD PLATE).

Consider `O=C1c2ccccc2-c2cc3ccccc3cc21`, for which the mutagenic call under setting [2] is “active; positive” and the mutagenic call under setting [3] was “active; positive”.

`COCCl`: the mutagenic call is, setting by setting: (End Point: IN VITRO CHROMOSOMAL ABERRATIONS, Test System: CHL CELLS, Metabolic Activation: NONE) “active; positive (structural and ploidy changes)”; (End Point: IN VITRO CHROMOSOMAL ABERRATIONS, Test System: CHL CELLS, Metabolic Activation: RAT, LIVER, S-9, SODIUM PHENOBARBITAL AND 5,6-BENZOFLAVONE) “active; positive (structural changes)”.

In the case of `Cc1ccc(N)c(O)c1`, the mutagenic call was “inactive; negative” (Test System: AMES SALMONELLA TYPHIMURIUM, Strain/Indicator: TA98, Metabolic Activation: HAMSTER LIVER S-9, AROCLOR 1254, Method: STANDARD PLATE); “inactive; negative” under setting [2]; “inactive; negative” (Test System: AMES SALMONELLA TYPHIMURIUM, Strain/Indicator: TA98, Metabolic Activation: RAT LIVER S-9, AROCLOR 1254, Method: STANDARD PLATE); “inactive; negative” (Test System: AMES SALMONELLA TYPHIMURIUM, Strain/Indicator: TA100, Metabolic Activation: HAMSTER LIVER S-9, AROCLOR 1254, Method: STANDARD PLATE); “active; positive” under setting [4]; “inactive; negative” (Test System: AMES SALMONELLA TYPHIMURIUM, Strain/Indicator: TA100, Metabolic Activation: RAT LIVER S-9, AROCLOR 1254, Method: STANDARD PLATE). Moreover, the mutagenic call runs as follows: (Test System: MOUSE LYMPHOMA, Strain/Indicator: L5178Y (TK+/TK-), Metabolic Activation: NONE, Method: SUSPENSION/PLATE) “active; positive. reevaluation of results: positive”; (Test System: MOUSE LYMPHOMA, Strain/Indicator: L5178Y (TK+/TK-), Metabolic Activation: RAT, LIVER, S-9, AROCLOR 1254, Method: SUSPENSION/PLATE) “active; positive. reevaluation of results: equivocal”.
